Measured values reported in ChEMBL document CHEMBL3621073, “Bile acid amphiphiles with tunable head groups as highly selective antitubercular agents” (Medchemcomm, 2014).
The source made the active and inactive calls. The calls are words filed in the database; no cut-off is given here.

Tests used:
[1] = test system: Mycobacterium tuberculosis; test: Antimycobacterial activity against Mycobacterium tuberculosis H37Rv after 14 days by inverted microscopic analysis; type: functional; details: 336 h
[2] = test system: Mycolicibacterium smegmatis; test: Antimycobacterial activity against Mycobacterium smegmatis str. MC2 155 after 6 to 96 hrs by inverted microscopic analysis relative to control; type: functional
Staphylococcus aureus [3] = test: Antibacterial activity against Staphylococcus aureus MTCC 737 assessed as effect on membrane permeabilization by using propidium iodide dye; type: functional, organism-based
A549 [4] = test: Cytotoxicity against human A549 cells assessed as effect on cell cycle phase at 100 uM by propidium iodide staining-based flow cytometry; details: a549, 100 µM
Lipid bilayer [5] = test: Binding affinity to PE:PG:LPS membrane assessed as membrane fluidity after 4 hrs
Escherichia coli [6] = test: Antibacterial activity against Escherichia coli MTCC 443 assessed as micelle-like structures by atomic force microscopic analysis; type: functional, organism-based
Escherichia coli [7] = test: Antibacterial activity against Escherichia coli MTCC 443 after 12 hrs by microplate reader assay; type: functional; details: MTCC 443, 12 h
Staphylococcus aureus [8] = test: Antibacterial activity against Staphylococcus aureus MTCC 737 after 12 hrs by microplate reader assay; type: functional; details: MTCC 737, 12 h
[9] = Therapeutic index, ratio of MHC50 for sheep RBC to MIC99 for Mycobacterium tuberculosis H37Rv; details: sheep red blood cells, read-out: TI
[10] = test system: Mycolicibacterium smegmatis; test: Antimycobacterial activity against Mycobacterium smegmatis str. MC2 155 after 2 days by inverted microscopic analysis; type: functional; details: str. MC2 155, 48 h
Escherichia coli [11] = test: Antibacterial activity against Escherichia coli MTCC 443 after 12 hrs by microplate reader assay in presence of EDTA; type: functional, organism-based
Staphylococcus aureus [12] = test: Antibacterial activity against Staphylococcus aureus MTCC 737 measured after 1 to 24 hrs by microplate reader assay; type: functional, organism-based
[13] = Binding affinity to PE:PG membrane assessed as membrane fluidity after 4 hrs
THP-1 = test: Cytotoxicity against human THP1 cells after 48 hrs by MTT assay; type: cell-based; details: THP-1, 48 h
[14] = Binding affinity to PE:PG membrane assessed as dehydration of membrane after 4 hrs
Escherichia coli [15] = test: Antibacterial activity against Escherichia coli MTCC 443 assessed as membrane surface indentations by atomic force microscopic analysis; type: functional, organism-based
Escherichia coli [16] = test: Antibacterial activity against Escherichia coli MTCC 443 measured after 1 to 24 hrs by microplate reader assay; type: functional, organism-based
Lipid bilayer [17] = test: Binding affinity to PE:PG:LPS membrane assessed as dehydration of membrane after 4 hrs
[18] = Therapeutic index, ratio of MHC50 for chicken RBC to MIC99 for Mycobacterium tuberculosis H37Rv; details: chicken red blood cells, read-out: TI
Lipid bilayer [19] = test: Binding affinity to PE:PG:TDM membrane assessed as membrane fluidity after 4 hrs
Escherichia coli [20] = test: Antibacterial activity against Escherichia coli MTCC 443 assessed as leakage of large amount of cytoplasmic contents by atomic force microscopic analysis; type: functional, organism-based
A549 [21] = test: Cytotoxicity against human A549 cells after 48 hrs by MTT assay; type: cell-based; details: A549, 48 h
Staphylococcus aureus [22] = test: Antibacterial activity against Staphylococcus aureus MTCC 737 after 12 hrs by microplate reader assay in presence of EDTA; type: functional, organism-based
Lipid bilayer [23] = test: Binding affinity to PE:PG:TDM membrane assessed as dehydration of membrane after 4 hrs
Escherichia coli [24] = test: Antibacterial activity against Escherichia coli MTCC 443 assessed as effect on membrane permeabilization by using propidium iodide dye; type: functional, organism-based
Staphylococcus aureus [25] = test: Antibacterial activity against Staphylococcus aureus MTCC 737 at 16 to 256 uM measured after 1 to 24 hrs by microplate reader assay; type: functional, organism-based
Escherichia coli [26] = test: Antibacterial activity against Escherichia coli MTCC 443 assessed as effect membrane morphology by atomic force microscopic analysis; type: functional, organism-based
Escherichia coli [27] = test: Antibacterial activity against Escherichia coli MTCC 443 at 8 to 128 uM measured after 1 to 24 hrs by microplate reader assay; type: functional, organism-based
Escherichia coli [28] = test: Antibacterial activity against Escherichia coli MTCC 443 assessed as effect membrane topology by atomic force microscopic analysis; type: functional, organism-based
[29] = test system: Mycolicibacterium smegmatis; test: Antimycobacterial activity against Mycobacterium smegmatis str. MC2 155 assessed as effect on […] by using propidium iodide dye; type: functional, organism-based
[30] = test system: Mycobacterium tuberculosis; test: Antimycobacterial activity against Mycobacterium tuberculosis H37Rv after 14 days by inverted microscopic analysis in presence of plasma; type: functional; details: 336 h
[31] = test system: Mycolicibacterium smegmatis; test: Antimycobacterial activity against Mycobacterium smegmatis str. MC2 155 after 2 days by inverted microscopic analysis in presence of plasma; type: functional; details: str. MC2 155, 48 h

Structure (SMILES)	MIC99 [1]	Activity (A549 [4])	Activity (Lipid bilayer [5])	MIC99 (Escherichia coli [7])	MIC99 (Staphylococcus aureus [8])	selectivity ratio [9]	MIC99 [10]	Activity (Escherichia coli [11])	Activity [13]	IC50 (THP-1)	selectivity ratio [18]	Activity (Lipid bilayer [19])	IC50 (A549 [21])	Activity (Staphylococcus aureus [22])	Activity (Lipid bilayer [23])	also measured
COC(=O)CC[C@@H](C)[C@H]1CC[C@H]2[C@@H]3[C@H](OC(=O)CN)C[C@@H]4C[C@H](OC(=O)CN)CC[C@]4(C)[C@H]3C[C@H](OC(=O)CN)[C@]12C.Cl.Cl.Cl	> 50 µM	Non-toxic	inactive	32 µM	64 µM	< 20	> 50 µM	Active	inactive	38.2 µM	< 20	inactive	75.9 µM	Active	Active	Activity [2]: inactive; Activity (Staphylococcus aureus [3]): Active; Activity (Escherichia coli [6]): Active; Activity (Staphylococcus aureus [12]): Dose-dependent effect; Activity [14]: Active; Activity (Escherichia coli [15]): Active; Activity (Escherichia coli [16]): Dose-dependent effect; Activity (Lipid bilayer [17]): Active; Activity (Escherichia coli [20]): Active; Activity (Escherichia coli [24]): Active
COC(=O)CC[C@@H](C)[C@H]1CC[C@H]2[C@@H]3[C@H](OC(=O)C[n+]4ccc(N(C)C)cc4)C[C@@H]4C[C@H](OC(=O)C[n+]5ccc(N(C)C)cc5)CC[C@]4(C)[C@H]3C[C@H](OC(=O)C[n+]3ccc(N(C)C)cc3)[C@]12C.[Cl-].[Cl-].[Cl-]	6.25 µM	Non-toxic	inactive	> 512 µM	256 µM	> 160	1.56 µM	Active	inactive	> 200 µM	> 160	Active	> 200 µM	Active	inactive	fold change (FC) [2]: 10000; Activity (Staphylococcus aureus [25]): inactive; Activity (Escherichia coli [26]): inactive; Activity (Escherichia coli [27]): inactive; Activity (Escherichia coli [28]): inactive; Activity [29]: Active; MIC99 [30]: 6.25 µM; MIC99 [31]: 6.25 µM
